Reference: patent US10370401B2, “Substituted nucleosides, nucleotides and analogs thereof” (Alios BioPharma, Inc., priority 2013, dated 2019)
Like-named read-outs stand apart in the source and are kept apart here.

Experiments:
Human rhinovirus 1B = assay: Picornavirus assay (CPE, CellTiter-Glo, HeLa-OHIO cells); format: cell-based; conditions: Rhinovirus A, 96 h
subgenomic HCV replicon = assay: HCV replicon assay (Huh-7, luciferase reporter); format: cell-based; conditions: Hepatitis C virus
[1] = target: dengue virus NS5 polymerase domain (DENVpol, serotype 2, New Guinea C strain) (Dengue virus type 2, UniProt P14340); assay: Dengue virus polymerase inhibition assay; format: biochemical; conditions: DENVpol serotype 2, 3 hours at 30° C., mean of several independent experiments
Description: The enzyme activity of dengue virus NS5 polymerase domain (DENVpol, serotype 2, New Guinea C strain) was measured as an incorporation of tritiated NMP into acid-insoluble RNA products. DENVpol assay reactions contained 100 nM recombinant enzyme, 50 nM heteropolymeric RNA, about 0.5 μCi tritiated NTP, 0.33 μM of competing cold NTP, 40 mM HEPES (pH 7.5), 3 mM dithiothreitol, and 2 mM MgCl2. Standard reactions were incubated for 3 hours at 30° C., in the presence of increasing concentration of inhibitor. At the end of the reaction, RNA was precipitated with 10% TCA, and acid-insoluble RNA products were filtered on a size exclusion 96-well plate. After washing of the plate, scintillation liquid was added and radiolabeled RNA products were detected according to standard procedures with a Trilux Topcount scintillation counter. The compound concentration at which the enzyme-catalyzed rate was reduced by 50% (IC50) was calculated by fitting the data to a non-linear regression (sigmoidal).

[2] = target: human rhinovirus 16 polymerase (HRV16pol) (Human rhinovirus 16, UniProt Q82122); assay: biochemical; conditions: HRV16pol, 2.5 h at 30° C., mean of several independent experiments; read-out: IC50
human rhinovirus 16 polymerase (HRV16pol), sequence (Q82122 1694-2153 limits assumed): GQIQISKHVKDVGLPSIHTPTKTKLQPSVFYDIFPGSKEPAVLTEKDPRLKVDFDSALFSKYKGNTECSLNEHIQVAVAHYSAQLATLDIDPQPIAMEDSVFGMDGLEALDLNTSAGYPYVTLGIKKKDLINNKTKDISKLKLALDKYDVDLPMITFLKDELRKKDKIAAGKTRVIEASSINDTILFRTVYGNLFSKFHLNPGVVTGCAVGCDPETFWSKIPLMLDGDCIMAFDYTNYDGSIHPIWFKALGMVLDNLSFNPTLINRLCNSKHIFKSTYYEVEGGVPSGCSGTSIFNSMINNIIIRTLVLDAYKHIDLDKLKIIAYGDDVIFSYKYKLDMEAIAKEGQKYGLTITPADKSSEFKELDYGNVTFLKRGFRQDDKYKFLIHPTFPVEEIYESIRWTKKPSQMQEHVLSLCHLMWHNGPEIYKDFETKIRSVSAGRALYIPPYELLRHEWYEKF

[3] = Human rhinovirus 1B, HeLa-OHIO cells, 4 d at 33° C., read-out: EC50
[4] = Huh-7 HCV replicon cells, luciferase, 72 hours, read-out: EC50

Compound | EC50 (Human rhinovirus 1B; [3]) [µM] | EC50 (subgenomic HCV replicon; [4]) [µM] | further results
CC(C)OC(=O)OCOP(=O)(OCOC(=O)OC(C)C)OC[C@@]1(CF)O[C@@H](n2cnc3c(N)ncnc32)[C@](C)(O)[C@@H]1O [Compound 84] | < 1 | 1 to 10 | –
CC(C)(CO)C(=O)SCCOP(=O)(NCc1ccccc1)OC[C@@]1(CF)O[C@@H](n2ccc(=O)[nH]c2=O)[C@](C)(O)[C@@H]1O (stereo partly shown) [Compound 280] | 10 to 100 | 10 to 100 | –
CC(=O)OCOP(=O)(OCOC(C)=O)OC[C@@]1(CF)O[C@@H](n2ccc(=O)[nH]c2=O)[C@](C)(O)[C@@H]1O [Compound 67] | – | 10 to 100 | –
Nc1ccn([C@@H]2O[C@](CCl)(COP(=O)(O)OP(=O)(O)OP(=O)(O)O)[C@@H](O)[C@H]2O)c(=O)n1 [compound 164] | – | – | IC50 [1]: < 100 µM
COC(=O)OCOP(=O)(OCOC(=O)OC)OC[C@@]1(CF)O[C@@H](n2ccc(=O)[nH]c2=O)[C@](C)(O)[C@@H]1O [Compound 65] | 10 to 100 | 10 to 100 | –
CC(C)OC(=O)OCOP(=O)(OCOC(=O)OC(C)C)OC[C@@]1(CF)O[C@@H](n2ccc(=O)[nH]c2=O)[C@](C)(O)[C@@H]1OC(=O)CN [Compound 282] | – | – | EC50 (Human rhinovirus 1B): < 1 µM; EC50 (subgenomic HCV replicon; Huh-7, 72 h): < 1 µM
CC(C)OC(=O)OCOP(=O)(OCOC(=O)OC(C)C)OC[C@@]1(CF)O[C@@H](n2ccc(=O)n(COP(=O)(O)O)c2=O)[C@](C)(O)[C@@H]1O [Compound 284] | 1 to 10 | 1 to 10 | –
CCOc1nc(N)nc2c1ncn2[C@@H]1O[C@](CF)(COP(=O)(N[C@@H](C)C(=O)OC2CCCCC2)Oc2ccccc2)[C@@H](O)[C@@]1(C)O (stereo partly shown) [Compound 36] | – | – | EC50 (Human rhinovirus 1B): < 1 µM; EC50 (subgenomic HCV replicon; Huh-7, 72 h): < 1 µM
Nc1ccn([C@@H]2O[C@H](CO)[C@@H](O)[C@]2(O)CF)c(=O)n1 [Compound 295] | 10 to 100 | 1 to 10 | –
CC(C)OC(=O)OCOP(=O)(OCOC(=O)OC(C)C)OC[C@@]1(CF)O[C@@H](n2ccc(=O)[nH]c2=O)[C@](C)(O)[C@@H]1OC(=O)[C@H](C)N [Compound 281] | – | – | EC50 (Human rhinovirus 1B): < 1 µM; EC50 (subgenomic HCV replicon; Huh-7, 72 h): < 1 µM
CCOc1nc(N)nc2c1ncn2[C@@H]1O[C@](F)(COP(=O)(N[C@@H](C)C(=O)OC(C)C)Oc2ccccc2)[C@@H](F)[C@@]1(C)O (stereo partly shown) [Compound 22] | – | – | EC50 (Human rhinovirus 1B): 1 to 10 µM; EC50 (subgenomic HCV replicon; Huh-7, 72 h): 1 to 10 µM
C=C[C@]1(CO)O[C@@H](n2ccc(N)nc2=O)[C@H](O)[C@@H]1O [compound 303] | 10 to 100 | 1 to 10 | –
CC(C)OC(=O)OCOP(=O)(N[C@@H](C)C(=O)OC(C)C)OC[C@@]1(CF)O[C@@H](n2ccc(=O)[nH]c2=O)[C@](C)(O)[C@@H]1O (stereo partly shown) [Compound 286] | 1 to 10 | < 1 | –
Nc1ncnc2c1ncn2[C@@H]1O[C@H](CO)[C@@H](O)[C@]1(O)CF [compound 301] | 10 to 100 | < 1 | –
C=C[C@]1(CO)O[C@@H](n2ccc(N)nc2=O)C(F)(F)[C@@H]1O [Compound 75] | 1 to 10 | – | EC50 (subgenomic HCV replicon; Huh-7, 72 h): 10 to 100 µM
CCOc1nc(N)nc2c1ncn2[C@@H]1O[C@](F)(COP(=O)(OCOC(=O)OC(C)C)OCOC(=O)OC(C)C)[C@@H](F)[C@@]1(C)O [Compound 57] | < 1 | < 1 | –
C#C[C@@]1(O)[C@H](O)[C@@](CCl)(COP(=O)(OCOC(=O)OC(C)C)OCOC(=O)OC(C)C)O[C@H]1n1cnc2c(N)ncnc21 [Compound 64] | 1 to 10 | 10 to 100 | –
C[C@]1(F)[C@H](n2ccc(=O)[nH]c2=O)O[C@](F)(COP(=O)(O)OP(=O)(O)OP(=O)(O)O)[C@H]1O [compound 147] | – | – | IC50 [1]: < 10 µM
C#C[C@]1(F)[C@H](n2cnc3c(=O)[nH]c(N)nc32)O[C@](F)(COP(=O)(O)OP(=O)(O)OP(=O)(O)O)[C@H]1O [compound 123] | – | – | IC50 [2]: < 1 µM; IC50 [1]: < 10 µM
[N-]=[N+]=NC[C@]1(CO)O[C@@H](n2ccc(N)nc2=O)[C@H](F)[C@@H]1O [Compound 106] | 1 to 10 | 10 to 100 | –
CC(C)OC(=O)OCOP(=O)(OCOC(=O)OC(C)C)OC[C@@]1(CF)O[C@@H](n2ccc(=O)n(COC(=O)C(N)C(C)C)c2=O)[C@](C)(O)[C@@H]1O (stereo partly shown) [Compound 52] | – | – | EC50 (Human rhinovirus 1B): < 1 µM; EC50 (subgenomic HCV replicon; Huh-7, 72 h): < 1 µM
Nc1nc2c(ncn2[C@@H]2O[C@](F)(COP(=O)(O)OP(=O)(O)OP(=O)(O)O)[C@@H](O)[C@H]2F)c(=O)[nH]1 [compound 163] | – | – | IC50 [1]: < 10 µM
